Laboratory results reported in patent US10934310B2, “Inhibitors of Bruton's tyrosine kinase and method of their use” (JANSSEN PHARMACEUTICA NV, priority 2015, dated 2021).

These compounds were tested against unphosphorylated-BTK kinase domain (UP-BTK), GST-tagged human BTK (389-659aa) (Homo sapiens (Human), UniProt Q06187) (assay: BTK Kinase Lanthascreen Binding Assay). Settings: compound, 50 nM Tracer 236, 2 nM anti-GST antibody, 60 minutes; pIC50 = negative log of the IC50 in molar.
Description: BTK Kinase Lanthascreen Binding Assay:
A BTK kinase lanthascreen binding assay monitors compound binding to unphosphorylated-BTK kinase domain (UP-BTK), by competing with a fluorescent labeled tracer. […] Data were analyzed using Xlfit™ version 5.3 from ID Business Solutions (Guildford), Microsoft Excel add-in. pIC50 refers to the negative log of the IC50 in molar.

Chain of unphosphorylated-BTK kinase domain (UP-BTK), GST-tagged human BTK (389-659aa) (Q06187 389-659): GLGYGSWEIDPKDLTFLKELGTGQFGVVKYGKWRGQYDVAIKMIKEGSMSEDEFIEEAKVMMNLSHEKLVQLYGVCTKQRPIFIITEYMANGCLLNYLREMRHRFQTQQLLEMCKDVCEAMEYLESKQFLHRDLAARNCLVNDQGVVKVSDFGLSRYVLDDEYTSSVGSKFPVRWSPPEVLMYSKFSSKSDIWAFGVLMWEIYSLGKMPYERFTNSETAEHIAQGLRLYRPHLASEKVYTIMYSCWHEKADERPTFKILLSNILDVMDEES

Point of comparison: `C=CC(=O)N[C@@H]1CC[C@H](NC(=O)c2sc3nccc4c3c2NC(=O)N4c2ccc(OC(C)C)cc2C)C1` [Example 110, N-((1S,3R)-3-Acrylamidocyclopentyl)-5-(4-isopropoxy-2-methylphenyl)-4-oxo-4,5-dihydro-3H-1-thia-3,5,8-triazaacenaphthylene-2-carboxamide], “BTK_I_binding pIC50” value 7.23. Against it:
- Cc1cc(Oc2ccccc2)ccc1N1C(=O)Nc2c(C(=O)NC3CCCC3)sc3nccc1c23 [Example 81, N-Cyclopentyl-5-(*S)-(2-methyl-4-phenoxyphenyl)-4-oxo-4,5-dihydro-3H-1-thia-3,5,8-triazaacenaphthylene-2-carboxamide] — lower, 7.03
- Cc1cc(Oc2ccccc2)ccc1N1C(=O)Nc2c(C(=O)NC3CCCC3)sc3nccc1c23 [Example 82, N-Cyclopentyl-5-(*R)-(2-methyl-4-phenoxyphenyl)-4-oxo-4,5-dihydro-3H-1-thia-3,5,8-triazaacenaphthylene-2-carboxamide] — lower, 5.35
- N[C@@H]1CCC[C@H]1NC(=O)c1sc2nccc3c2c1NC(=O)N3c1ccc(Oc2ccccc2)cc1 [Example 91, N-((1R,2R)-2-Aminocyclopentyl)-4-oxo-5-(4-phenoxyphenyl)-4,5-dihydro-3H-1-thia-3,5,8-triazaacenaphthylene-2-carboxamide] — within 0.2 log units, 7.31
- N[C@H]1CCC[C@H]1NC(=O)c1sc2nccc3c2c1NC(=O)N3c1ccc(Oc2ccccc2)cc1 [Example 97, N-((1R,2S)-2-Aminocyclopentyl)-4-oxo-5-(4-phenoxyphenyl)-4,5-dihydro-3H-1-thia-3,5,8-triazaacenaphthylene-2-carboxamide] — higher, 7.70
- N[C@@H]1CCC[C@@H]1NC(=O)c1sc2nccc3c2c1NC(=O)N3c1ccc(Oc2ccccc2)cc1 [Example 98, N-((1S,2R)-2-Aminocyclopentyl)-4-oxo-5-(4-phenoxyphenyl)-4,5-dihydro-3H-1-thia-3,5,8-triazaacenaphthylene-2-carboxamide] — lower, 6.10
- Cc1cc(Oc2ccccc2)ccc1N1C(=O)Nc2c(C(=O)N[C@H]3CC[C@@H](N(C)C)CC3)sc3nccc1c23 [Example 99, N-((1S,4S)-4-(Dimethylamino)cyclohexyl)-5-(*S)-(2-methyl-4-phenoxyphenyl)-4-oxo-4,5-dihydro-3H-1-thia-3,5,8-triazaacenaphthylene-2-carboxamide] — lower, 7.03
- Cc1cc(Oc2ccccc2)ccc1N1C(=O)Nc2c(C(=O)N[C@H]3CC[C@@H](N(C)C)CC3)sc3nccc1c23 [Example 100, N-((1S,4S)-4-(Dimethylamino)cyclohexyl)-5-(*R)-(2-methyl-4-phenoxyphenyl)-4-oxo-4,5-dihydro-3H-1-thia-3,5,8-triazaacenaphthylene-2-carboxamide] — lower, 5.86
- C=CC(=O)N[C@H]1CCC[C@H]1NC(=O)c1sc2nccc3c2c1NC(=O)N3c1ccc(Oc2ccccc2)cc1 [Example 104, N-((1R,2S)-2-acrylamidocyclopentyl)-4-oxo-5-(4-phenoxyphenyl)-4,5-dihydro-3H-1-thia-3,5,8-triazaacenaphthylene-2-carboxamide] — higher, 8.37
- C=CC(=O)N[C@H]1CCCC[C@H]1NC(=O)c1sc2nccc3c2c1NC(=O)N3c1cccc(-c2ccccc2)c1 [Example 106, 5-([1,1′-Biphenyl]-3-yl)-N-((1R,2S)-2-acrylamidocyclohexyl)-4-oxo-4,5-dihydro-3H-1-thia-3,5,8-triazaacenaphthylene-2-carboxamide] — higher, 8.06
- C=CC(=O)N[C@H]1CCCC[C@H]1NC(=O)c1sc2nccc3c2c1NC(=O)N3c1ccc(Oc2ccccc2)cc1 [Example 118, N-((1R,2S)-2-Acrylamidocyclohexyl)-4-oxo-5-(4-phenoxyphenyl)-4,5-dihydro-3H-1-thia-3,5,8-triazaacenaphthylene-2-carboxamide] — higher, 8.12
- C=CC(=O)N[C@H]1CC[C@@H](NC(=O)c2sc3nccc4c3c2NC(=O)N4c2ccc(Oc3ccccc3)cc2)CC1 [Example 119, N-((1S,4S)-4-Acrylamidocyclohexyl)-4-oxo-5-(4-phenoxyphenyl)-4,5-dihydro-3H-1-thia-3,5,8-triazaacenaphthylene-2-carboxamide] — higher, 7.61
- C=CC(=O)N[C@H]1CC[C@@H](NC(=O)c2sc3nccc4c3c2NC(=O)N4c2ccc(Oc3ccccc3)cc2)C1 [Example 121, N-((1R,3S)-3-Acrylamidocyclopentyl)-4-oxo-5-(4-phenoxyphenyl)-4,5-dihydro-3H-1-thia-3,5,8-triazaacenaphthylene-2-carboxamide] — lower, 6.57
- C=CC(=O)N[C@@H]1CCCC[C@@H]1NC(=O)c1sc2nccc3c2c1NC(=O)N3c1ccc(Oc2ccccc2)cc1 [Example 124, N-((1S,2R)-2-Acrylamidocyclohexyl)-4-oxo-5-(4-phenoxyphenyl)-4,5-dihydro-3H-1-thia-3,5,8-triazaacenaphthylene-2-carboxamide] — lower, 6.71
- N[C@H]1CCCC[C@H]1NC(=O)c1sc2nccc3c2c1NC(=O)N3c1ccc(Oc2ccccc2)cc1 [Example 126, N-((1R,2S)-2-Aminocyclohexyl)-4-oxo-5-(4-phenoxyphenyl)-4,5-dihydro-3H-1-thia-3,5,8-triazaacenaphthylene-2-carboxamide] — within 0.2 log units, 7.13
- C=CC(=O)N[C@@H]1CCC[C@@H]1NC(=O)c1sc2nccc3c2c1NC(=O)N3c1ccc(Oc2ccccc2)cc1 [Example 127, N-((1S,2R)-2-Acrylamidocyclopentyl)-4-oxo-5-(4-phenoxyphenyl)-4,5-dihydro-3H-1-thia-3,5,8-triazaacenaphthylene-2-carboxamide] — lower, 6.56
- N[C@H]1CCCC[C@H]1NC(=O)c1sc2nccc3c2c1NC(=O)N3c1ccc(Oc2ccccc2)c(Cl)c1 [Example 137, N-((1R,2S)-2-Aminocyclohexyl)-5-(3-chloro-4-phenoxyphenyl)-4-oxo-4,5-dihydro-3H-1-thia-3,5,8-triazaacenaphthylene-2-carboxamide] — higher, 7.49
- O=C(N[C@@H]1CCC[C@@H](O)C1)c1sc2nccc3c2c1NC(=O)N3c1ccc(Oc2ccccc2)cc1 [Example 139, N-((1R,3R)-3-Hydroxycyclohexyl)-4-oxo-5-(4-phenoxyphenyl)-4,5-dihydro-3H-1-thia-3,5,8-triazaacenaphthylene-2-carboxamide] — the same, 7.23
- O=C(N[C@@H]1CCC[C@@H]1O)c1sc2nccc3c2c1NC(=O)N3c1ccc(Oc2ccccc2)cc1 [Example 140, N-((1R,2S)-2-Hydroxycyclopentyl)-4-oxo-5-(4-phenoxyphenyl)-4,5-dihydro-3H-1-thia-3,5,8-triazaacenaphthylene-2-carboxamide] — within 0.2 log units, 7.15
- N[C@H]1CCCC[C@H]1NC(=O)c1sc2nccc3c2c1NC(=O)N3c1cccc(-c2ccccc2)c1 [Example 141, 5-([1,1′-Biphenyl]-3-yl)-N-((1R,2S)-2-aminocyclohexyl)-4-oxo-4,5-dihydro-3H-1-thia-3,5,8-triazaacenaphthylene-2-carboxamide] — lower, 7.01
- O=C(N[C@@H]1CCC[C@H](O)C1)c1sc2nccc3c2c1NC(=O)N3c1ccc(Oc2ccccc2)cc1 [Example 142, N-((1R,3S)-3-Hydroxycyclohexyl)-4-oxo-5-(4-phenoxyphenyl)-4,5-dihydro-3H-1-thia-3,5,8-triazaacenaphthylene-2-carboxamide] — lower, 6.87
- O=C(N[C@H]1CCC[C@H](O)C1)c1sc2nccc3c2c1NC(=O)N3c1ccc(Oc2ccccc2)cc1 [Example 143, N-((1S,3S)-3-Hydroxycyclohexyl)-4-oxo-5-(4-phenoxyphenyl)-4,5-dihydro-3H-1-thia-3,5,8-triazaacenaphthylene-2-carboxamide] — lower, 6.75
- O=C(N[C@@H]1CCC[C@H]1O)c1sc2nccc3c2c1NC(=O)N3c1cccc(-c2ccccc2)c1 [Example 144, 5-([1,1′-Biphenyl]-3-yl)-N-((1R,2R)-2-hydroxycyclopentyl)-4-oxo-4,5-dihydro-3H-1-thia-3,5,8-triazaacenaphthylene-2-carboxamide] — lower, 6.69
- N[C@H]1CC[C@@H](NC(=O)c2sc3nccc4c3c2NC(=O)N4c2ccc(Oc3ccccc3)cc2)CC1 [Example 145, N-((1S,4S)-4-Aminocyclohexyl)-4-oxo-5-(4-phenoxyphenyl)-4,5-dihydro-3H-1-thia-3,5,8-triazaacenaphthylene-2-carboxamide] — lower, 6.69
- N[C@H]1CC[C@H](NC(=O)c2sc3nccc4c3c2NC(=O)N4c2ccc(Oc3ccccc3)cc2)CC1 [Example 146, N-(trans-(1R,4R)-4-Aminocyclohexyl)-4-oxo-5-(4-phenoxyphenyl)-4,5-dihydro-3H-1-thia-3,5,8-triazaacenaphthylene-2-carboxamide] — lower, 6.66
- N[C@H]1CCC[C@@H]1NC(=O)c1sc2nccc3c2c1NC(=O)N3c1ccc(Oc2ccccc2)cc1 [Example 148, N-((1S,2S)-2-Aminocyclopentyl)-4-oxo-5-(4-phenoxyphenyl)-4,5-dihydro-3H-1-thia-3,5,8-triazaacenaphthylene-2-carboxamide] — lower, 6.47

Same assay, conditions: read-out: BTK_I_binding pIC50 (converted)

Point of comparison: `Cc1cc(Oc2ccccc2)ccc1N1C(=O)Nc2c(C(=O)N[C@H]3CC[C@H](O)CC3)sc3nccc1c23` [Example 86, N-((1R,4R)-4-Hydroxycyclohexyl)-5-(*R)-(2-methyl-4-phenoxyphenyl)-4-oxo-4,5-dihydro-3H-1-thia-3,5,8-triazaacenaphthylene-2-carboxamide], IC50 229 nM. Against it:
- C=CC(=O)N[C@@H]1CC[C@H](NC(=O)c2sc3nccc4c3c2NC(=O)N4c2ccc(Oc3ccccc3)cc2)C1 [Example 117, N-((1S,3R)-3-Acrylamidocyclopentyl)-4-oxo-5-(4-phenoxyphenyl)-4,5-dihydro-3H-1-thia-3,5,8-triazaacenaphthylene-2-carboxamide] — 14-fold lower, 15.8 nM
